According to patent US20060128727A1, “Fungicidal mixtures based on a triazolopyrimidine derivative” (priority 2003, published 2006):

Test system: Plasmopara viticola
Test: Activity against peronospora of grapevines caused by Plasmopara viticola (protective spray test on potted vines)
Type: in vivo
Conditions: individual active compound, vines cultivar Riesling
Method: The active compounds, separately or jointly, were prepared as a stock solution comprising 0.25% by weight of active compound in acetone or DMSO. 1% by weight of the emulsifier Uniperol® EL (wetting agent having emulsifying and dispersant action based on ethoxylated alkylphenols) was added to this solution, and the mixture was diluted with water to the desired concentration. USE EXAMPLE
Leaves of potted vines of the cultivar “Riesling” were sprayed to runoff point with an aqueous suspension having the concentration of active compound stated below. The next day, the undersides of the leaves were inoculated with an aqueous zoospore suspension of Plasmopara viticola. The grapevines were then initially placed in a water-vapor-saturated chamber at 24° C. for 48 hours and then in a greenhouse at 20-30° C. for 5 days. After this period of time, the plants were again placed in a humid chamber for 16 hours to promote sporangiophore eruption. The extent of the development of the disease on the undersides of the leaves was then determined visually.
The visually determined percentages of infected leaf areas were converted into efficacies in % of the untreated control:
The efficacy (E) is calculated as follows using Abbot's formula: E=(1−α/β)·100 • α corresponds to the fungicidal infection of the treated plants in % and • β corresponds to the fungicidal infection of the untreated (control) plants in %
An efficacy of 0 means that the infection level of the treated plants corresponds to that of the untreated control plants; an efficacy of 100 means that the treated plants were not infected.
The expected efficacies of mixtures of active compounds were determined using Colby's formula (Colby, S. R. “Calculating synergistic and antagonistic responses of herbicide combinations”, Weeds, 15, 20-22, 1967) and compared with the observed efficacies.
Colby's Formula: E=x+y−x·y/100 • E expected efficacy, expressed in % of the untreated control, when using the mixture of the active compounds A and B at the concentrations a and b • x efficacy, expressed in % of the untreated control, when using the active compound A at the concentration a • y efficacy, expressed in % of the untreated control, when using the active compound B at the concentration b

SMILES | Efficacy in % of the untreated control (4 ppm in the spray liquor) | Efficacy in % of the untreated control (1 ppm in the spray liquor) | Efficacy in % of the untreated control (63 ppm in the spray liquor)
CC1CCN(c2c(-c3c(F)cc(F)cc3F)c(Cl)nc3ncnn23)CC1 [I, 5-chloro-7-(4-methylpiperidin-1-yl)-6-(2,4,6-trifluorophenyl)-[1,2,4]triazolo[1,5-a]pyrimidine] | 56% |  | 
C[C@H](Nc1c(-c2c(F)cc(F)cc2F)c(Cl)nc2ncnn12)C(F)(F)F [Comparison B] | 11% |  | 
Cc1cc(C2CC2)nc(Nc2ccccc2)n1 [II-2, (4-cyclopropyl-6-methylpyrimidin-2-yl)phenylamine] | 0% | 0% | 0%
CC#Cc1cc(C)nc(Nc2ccccc2)n1 [II-3, (4-methyl-6-prop-1-ynylpyrimidin-2-yl)phenylamine] | 0% | 0% | 0%
Cc1cc(C)nc(Nc2ccccc2)n1 [II-1, (4,6-dimethylpyrimidin-2-yl)phenylamine] | 0% | 0% | 0%
CC1CCN(c2c(-c3c(F)cccc3Cl)c(Cl)nc3ncnn23)CC1 [Comparison A] | 0% |  | 
